According to patent publication US7501410B2, “Methods of inhibiting BTK and SYK protein kinases” (Roche Palo Alto LLC, priority 2006, dated 2009):

Experiments:
[1] = molecular target: T1, Spleen Tyrosine Kinase (SYK) aa 360-635 (Homo sapiens, UniProt P43405); assay: Determination of IC50 of Spleen Tyrosine Kinase (SYK) inhibition, 33P kinase assay; type: biochemical; conditions: recombinant human SYK360-635, 20 μM ATP; read-out: IC50 (μM) SYK Assay
T1 construct: truncated construct of Spleen Tyrosine Kinase aa 360-635; made in house
Experimental: Determination of IC50 of Spleen Tyrosine Kinase (SYK) Inhibition
The SYK kinase assay is a standard kinase assay adapted to a 96 well plate format. This assay is performed in 96-well format for IC50 determination with 8 samples which represented 10 half log dilutions and a 40 μL reaction volume. The assay measures the incorporation of radiolabeled ^33P γATP into an N-terminally biotinylated peptide substrate, derived from naturally occurring phosphoacceptor consensus sequence (Biotin-11aa DY*E). Phosphorylated products were detected upon termination of reactions with EDTA and the addition of Streptavidin coated beads. • Assay plates: 96-well MultiScreen 0.65 um filter plates (Millipore Cat. No.: MADVNOB10) • Streptavidin coated beads: Streptavidin Sepharose TM, suspension 5.0 mL, in 50 mM EDTA/PBS diluted (1:100), (Amersham, Cat. No.: 17-5113-01) • Compounds: 10 mM in 100% dimethylsulfoxide (DMSO), final conc.: compound 0.003-100 uM in 10% DMSO • Enzyme: SYK RPA purified, truncated construct of Spleen Tyrosine Kinase aa 360-635, stock solution 1 mg/mL, MW: 31.2 KDa, final conc.:0.0005 μM. • Peptide 1: biotinylated peptide is derived from a naturally occurring phosphor-acceptor consensus sequence (Biotin-[…]), special order from QCB, stock solution 20 mM, final conc.: 5.0 μM. • ATP: Adenosine-5′-triphosphate 20 mM, (ROCHE Cat. No.:93202720), final concentration: 20 μM • Buffer: HEPES: 2-Hydroxyethyl piperazine-2-ethanesulfonic acid (Sigma, Cat. No.: H-3375) final concentration: 50 mM HEPES pH7.5 • BSA: Bovine Serum Albumin Fraction V, fatty acid free (Roche Diagnostics GmbH, Cat. No. 9100221) diluted to a final concentration of 0.1% • EDTA: EDTA stock solution 500 mM, (GIBCO, Cat. No.: 15575-038) final concentration: 0.1 mM • DTT: 1,4-Dithiothreitol (Roche Diagnostics GmbH, Cat. No.: 197777), final conc.: 1 mM • MgCl2×6H2O: MERCK, Cat. No.: 105833.1000, final concentration: 10 mM • Assay Dilution Buffer (ADB): 50 mM HEPES, 0.1 mM EGTA, 0.1 mM Na Vanadate, 0.1 mM β-glycerophosphate, 10 mM MgCl2, 1 mM DTT, 0,1% BSA, pH 7.5 • Bead wash buffer: 10 g/L PBS (Phosphate buffered saline) with 2M NaCl+1% phosphoric acid Experimental Method:
In 40 μL volume, 26 μL of ADB diluted, purified recombinant human SYK360-635 [0.5 nM] was mixed with 4 μL of 10× concentrations of the test compounds, [usually 100 μM-0.003 μM] in [10%] DMSO and the mixture was incubated for 10 min at RT.
The kinase reaction was initiated by the addition of 10 μL 4× substrate cocktail containing the DYE peptide substrate [0 or 5 μM], ATP [20 μM] and […] [2 μCi/rxn]. After incubation at 30° C. for 15 min, the reaction was terminated by the transfer of 25 μL of the reaction sample to a 96 well 0.65 um Millipore MADVNOB membrane/plate containing 200 μL 5 mM EDTA and 20% Streptavidine coated beads in PBS.
The unbound radionucleotides were washed under vacuum with 3×250 μL 2M NaCl; 2×250 μL 2M NaCl+1% phosphoric acid; 1×250 μL H2O. After the last wash membrane/plates were transferred to an adaptor plate, heat dried for 15 min at 60° C., and 50 μL scintillation cocktail was added to each well and 4 h later the amount of radioactivity was counted in a top counter.
The IC50 was calculated using a non-linear curve fit with XLfit software (ID Business Solution Ltd., Guilford, Surrey, UK). […] Representative results are in Table 1.

[2] = molecular target: T2, Bruton's Tyrosine Kinase (Btk) (Homo sapiens, UniProt Q06187); assay: Determination of IC50 of Bruton's Tyrosine Kinase (Btk) inhibition, 33P filtration assay; type: biochemical; conditions: His-tagged full-length Btk, 100 μM ATP
T2 construct: 5-10 nM Btk enzyme (His-tagged, full-length); His tag
From the text: Determination of IC50 of Bruton's Tyrosine Kinase (Btk) Inhibition
The assay is a capture of radioactive ^33P phosphorylated product through filtration. The interactions of Btk, biotinylated SH2 peptide substrate (Src homology), and ATP lead to phosphorylation of the peptide substrate. Biotinylated product is bound streptavidin sepharose beads. All bound, radiolabeled products are detected by scintillation counter.
Plates assayed are 96-well polypropylene (Greiner) and 96-well 1.2 μm hydrophilic PVDF filter plates (Millipore). Concentrations reported here are final assay concentrations: 10-100 μM compounds in DMSO (Burdick and Jackson), 5-10 nM Btk enzyme (His-tagged, full-length), 30 μM peptide substrate (Biotin-Aca-[…]-NH2), 100 μM ATP (Sigma), 8 mM imidazole (Sigma, pH 7.2), 8 mM glycerol-2-phosphate (Sigma), 200 μM EGTA (Roche Diagnostics), 1 mM MnCl2 (Sigma), 20 mM MgCl2 (Sigma), 0.1 mg/ml BSA (Sigma), 2 mM DTT (Sigma), 1 μCi ^33P ATP (Amersham), 20% streptavidin sepharose beads (Amersham), 50 mM EDTA (Gibco), 2 M NaCl (Gibco), 2 M NaCl w/1% phosphoric acid (Gibco), microscint-20 (Perkin Elmer).
IC50 determinations are calculated from 10 data points per compound utilizing data produced from a standard 96-well plate assay template. One control compound and seven unknown inhibitors were tested on each plate and each plate was run twice. Typically, compounds were diluted in half-log starting at 100 μM and ending at 3 nM. The control compound was staurosporine. Background was counted in the absence of peptide substrate. Total activity was determined in the presence of peptide substrate. The following protocol was used to determine BTK inhibition.
1) Sample preparation: The test compounds were diluted at half-log increments in assay buffer (imidazole, glycerol-2-phosphate, EGTA, MnCl2, MgCl2, BSA).
2) Bead preparation • a.) rinse beads by centrifuging at 500 g • b.) reconstitute the beads with PBS and EDTA to produce a 20% bead slurry
3) Pre-incubate reaction mix without substrate (assay buffer, DTT, ATP, ^33P ATP) and mix with substrate (assay buffer, DTT, ATP, ^33P ATP, peptide substrate) 30° C. for 15 min.
4) To start assay, pre-incubate 10 μL BTK in enzyme buffer (imidazole, glycerol-2-phosphate, BSA) and 10 μL of test compounds for 10 min at RT.
5) Add 30 μL reaction mixture without or with substrate to BTK and compounds.
6) Incubate 50 μL total assay mix for 30 min at 30° C.
7) Transfer 40 μL of assay to 150 μL bead slurry in filter plate to stop reaction.
8) Wash filter plate after 30 min, with following steps • a. 3 ×250 μL NaCl • b. 3×250 μL NaCl containing 1% phosphoric acid • c. 1×250 μL H2O
9) Dry plate for 1 h at 65° C. or overnight at RT
10) Add 50 μL microscint-20 and count ^33P cpm on scintillation counter.
Calculate percent activity from raw data in cpm percent activity=(sample−bkg)/(total activity−bkg)×100

T2 sequence (Q06187 whole entry): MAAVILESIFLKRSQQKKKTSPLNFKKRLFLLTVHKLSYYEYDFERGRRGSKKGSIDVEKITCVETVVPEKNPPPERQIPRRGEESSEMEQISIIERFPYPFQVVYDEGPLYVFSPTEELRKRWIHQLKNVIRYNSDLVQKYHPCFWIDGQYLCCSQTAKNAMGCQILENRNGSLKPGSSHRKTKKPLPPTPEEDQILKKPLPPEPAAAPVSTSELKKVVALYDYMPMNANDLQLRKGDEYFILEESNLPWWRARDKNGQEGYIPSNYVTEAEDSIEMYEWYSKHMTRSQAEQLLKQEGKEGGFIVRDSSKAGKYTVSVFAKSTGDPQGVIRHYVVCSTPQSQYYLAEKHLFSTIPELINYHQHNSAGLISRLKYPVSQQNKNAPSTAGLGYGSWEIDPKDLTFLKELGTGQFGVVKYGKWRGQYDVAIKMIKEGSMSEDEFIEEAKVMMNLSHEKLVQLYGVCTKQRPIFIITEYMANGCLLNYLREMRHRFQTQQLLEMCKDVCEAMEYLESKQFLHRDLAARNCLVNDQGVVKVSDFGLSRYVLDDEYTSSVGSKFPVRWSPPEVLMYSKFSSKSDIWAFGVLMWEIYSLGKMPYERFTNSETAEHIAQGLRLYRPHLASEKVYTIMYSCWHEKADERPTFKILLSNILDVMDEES

With Cc1cc(Nc2nn(C(C)C)c(=O)c3cc(C(=O)OCC4CC4)ccc23)n[nH]1 [Example M-6, 3-Isopropyl-1-(5-methyl-1H-pyrazol-3-ylamino)-4-oxo-3,4-dihydro-phthalazine-6-carboxylic acid cyclopropylmethyl ester] the IC50 [1] was 9.99 µM and the IC50 [2] was 67.7 µM.
Cc1cc(Nc2nn(Cc3cc(F)cc(F)c3)c(=O)c3ccccc23)n[nH]1 [Example A-21, 2-(3,5-difluoro-benzyl)-4-(5-methyl-1H-pyrazol-3-yl-amino)-2H-phthalazin-1-one] was tested, and the IC50 [1] was > 10 µM and the IC50 [2] was 14.6 µM.
COc1ccc(Cn2nc(Nc3cc(C)[nH]n3)c3ccccc3c2=O)cc1 [Example A-11, 2-(4-methoxy-benzyl)-4-(5-methyl-1H-pyrazol-3-ylamino)-2H-phthalazin-1-one] was tested, and the IC50 [1] was 49.2 µM and the IC50 [2] was 9.79 µM.
Cc1cc(Nc2nn(C(C)C)c(=O)c3cc(O)ccc23)n[nH]1 [Example G-6, 7-Hydroxy-2-isopropyl-4-(5-methyl-1H-pyrazol-3-yl-amino)-2H-phthalazin-1-one] was tested, and the IC50 [1] was 2.52 µM and the IC50 [2] was 1.28 µM.
With Cc1cc(Nc2nn(C(C)C)c(=O)c3ccc(N(C)C)cc23)n[nH]1 [Example F-7, 2-Isopropyl-4-(5-methyl-1H-pyrazol-3-ylamino)-6-dimethylamino-2H-phthalazin-1-one] the IC50 [1] was 37.4 µM and the IC50 [2] was 14.6 µM.
In the case of Cc1cc(Nc2nn(C(C)C)c(=O)c3cc(N(C)Cc4ccncc4)ccc23)n[nH]1 [Example I-2, 2-Isopropyl-4-(5-methyl-1H-pyrazol-3-ylamino)-7-(methyl-pyridin-4-ylmethyl-amino)-2H-phthalazin-1-one], the IC50 [1] was 0.392 µM and the IC50 [2] was 0.231 µM.
Cc1cc(Nc2nn(C(C)C)c(=O)c3cc(OCCCS(=O)(=O)N(C)C)ccc23)n[nH]1 [Example ZD-3, 3-[3-Isopropyl-1-(5-methyl-1H-pyrazol-3-ylamino)-4-oxo-3,4-dihydro-phthalazin-6-yloxy]-propane-1-sulfonic acid dimethylamide] was tested, and the IC50 [1] was 3.02 µM and the IC50 [2] was 0.86 µM.
Work on COc1ccc2c(Nc3cc(C)[nH]n3)nn(C(C)C)c(=O)c2c1 [Example G-1, 2-Isopropyl-4-(5-methyl-1H-pyrazol-3-ylamino)-7-methoxy-2H-phthalazin-1-one] yielded an IC50 [1] of 0.793 µM and an IC50 [2] of 0.724 µM.
Work on Cc1cc(Nc2nn(C(C)C)c(=O)c3cc(CS(C)(=O)=O)ccc23)n[nH]1 [Example ZI-2, 2-Isopropyl-7-methanesulfonylmethyl-4-(5-methyl-1H-pyrazol-3-yl-amino)-2H-phthalazin-1-one] yielded an IC50 [1] of 0.894 µM and an IC50 [2] of 0.44 µM.
Cc1cc(Nc2nn(CC(=O)c3ccccc3)c(=O)c3ccccc23)n[nH]1 [Example E-9, 4-(5-methyl-1H-pyrazol-3-ylamino)-2-(2-oxo-2-phenyl-ethyl)-2H-phthalazin-1-one] was tested, and the IC50 [1] was 7.67 µM and the IC50 [2] was 10.4 µM.
Cc1cc(Nc2nn(C(C)C)c(=O)c3cc(C(=O)NC(C)C)ccc23)n[nH]1 [Example M-5, 3-Isopropyl-1-(5-methyl-1H-pyrazol-3-ylamino)-4-oxo-3,4-dihydro-phthalazine-6-carboxylic acid isopropylamide] gave an IC50 [1] of 2.16 µM and an IC50 [2] of 0.769 µM.
With Cc1cc(Nc2nn(Cc3cccc(C(=O)O)c3)c(=O)c3ccccc23)n[nH]1 [Example A-24, 3-[4-(5-methyl-1H-pyrazol-3-ylamino)-1-oxo-1H-phthalazin-2-ylmethyl]-benzoic acid] the IC50 [1] was 24.9 µM and the IC50 [2] was 1.75 µM.
Cc1cc(Nc2nn(C(C)C)c(=O)c3cc(F)ccc23)n[nH]1 [Example E-2, 7-Fluoro-2-isopropyl-4-(5-methyl-1H-pyrazol-3-ylamino)-2H-phthalazin-1-one] showed an IC50 [1] of 7.61 µM and an IC50 [2] of 9.53 µM.
With Cc1cc(Nc2nn(C(C)C)c(=O)c3cc(CO)ccc23)[nH]n1 [Example M-9, 7-Hydroxymethyl-2-isopropyl-4-(5-methyl-1H-pyrazol-3-ylamino)-2H-phthalazin-1-one] the IC50 [1] was 0.666 µM and the IC50 [2] was 0.782 µM.
Cc1cc(Nc2nn(C(C)C)c(=O)c3ccc(F)cc23)n[nH]1 [Example E-3, 6-Fluoro-2-isopropyl-4-(5-methyl-1H-pyrazol-3-ylamino)-2H-phthalazin-1-one] showed an IC50 [1] of 87.5 µM and an IC50 [2] of 58.2 µM.
For CSc1ccc2c(Nc3cc(C)[nH]n3)nn(C(C)C)c(=O)c2c1 [Example H-1, 2-Isopropyl-4-(5-methyl-1H-pyrazol-3-ylamino)-7-methylsulfanyl-2H-phthalazin-1-one], the IC50 [1] was 1.57 µM and the IC50 [2] was 4.32 µM.
Molecule Cc1cc(Nc2nn(-c3ccc(C(C)(C)C)cc3)c(=O)c3ccccc23)n[nH]1 [Example A-8, 2-(4-tert-butyl-phenyl)-4-(5-methyl-1H-pyrazol-3-ylamino)-2H-phthalazin-1-one] has an IC50 [1] of 0.552 µM and an IC50 [2] of 30 µM.
